Data taken from US20230105693A1, “ANTIMICROBIAL COMPOSITIONS” (Firmenich SA, priority 2020, published 2023).
Counter-ions that a name gives are not always drawn. Like-named read-outs stand apart in the source and are kept apart here.

Key:
[1] = Equivalent alkane carbon number (EACN) in model microemulsion system; assay type: physicochemical; details: C10E5/water/isopropyl myristate model system, 3% wt perfume ingredient
Experimental: EACN values provide information on polarity and surface activity of apolar ingredients. Tchakalova and Fieber (J. of Surfactants and Detergents, 2012, 15(2):167-177) classified perfume ingredients based on values of EACNmix, the EACN of a mixture consisting of a test perfume ingredient and a reference oil (isopropyl myristate). The same model system and method were used to measure the EACN values of perfume ingredients with antimicrobial activities. Different perfume ingredients were added to the model microemulsion system shown in Table 1, in which the nonionic pentaethylene glycol mono n-decyl ether (C10E5) was used as surfactant. Phase transition temperatures of the system from Winsor I to Winsor III, and from Winsor III to Winsor II were determined using a water bath. Alkanes with different alkane carbon numbers (octane, decane, dodecane and hexadecane) were used to establish a linear correlation curve between EACN and the PIT, which is the average of the transitions from Winsor I to Winsor III, and from Winsor III to Winsor II, respectively. EACNmix was then calculated based on the linear relationship and the measured PIT for systems containing different perfume ingredients. The EACN of the pure perfume ingredient was calculated based on the molar ratio of the tested PRMs in the oil phase using following equation: […]
wherein n and nref are the molar fractions of tested perfume ingredient and the reference ingredient (i.e., isopropyl myristate) in the oil phase, respectively.

[2] = test system: Escherichia coli ATCC 10536; test: Robotic BCT test of perfume ingredients in model surfactant bases; assay type: cell-based; details: for log reduction at 0.5 %: Escherichia coli, ATCC10536, 45 s; for Log reduction (Log CFU/mL) Base 3: Base 3: SLES 1.5%, coco-glucoside 0.75%; for Log reduction (Log CFU/mL) Base 4: Base 4: SLES 2.25%, sodium xylene sulfonate 3%
Experimental: The surfactant bases tested included 1) sodium lauryl ether sulfate (SLES) and cocamidopropyl betaine (CAPB) at 3:1 mass ratios; 2) SLES, CAPB and coco-glucoside at 2:1:1 mass ratios. Test samples were prepared by mixing perfume ingredients with the surfactant bases and vigorously stirred for 24 hrs. Concentration of perfume ingredients in the bases was 0.5% wt. Samples with transparent appearance were selected for antimicrobial testing.
Antimicrobial efficacy was tested against a representative Gram-negative bacterial strain, Escherichia coli ATCC 10536, using robotic bacteria contact time (BCT) test based on European standard EN-1276 and EP2787827(B1).
Preparation of screening plate and dilution plate: Aliquots (270 µl) of compositions were dispensed into the wells of a 96-well microtiter plate (MTP) along two columns (B1-H1, and B7-H7), and 270 µl of MilliQ water was added to well A1 and A7 as the control samples. This MTP was labelled as the “Screening plate”. In another MTP, labelled as the “Dilution plate”, 270 µL of Dey-Engley (D/E) neutralizing solution was added to column 1 and column 7. 270 µl of tryptone diluent solution was added to columns 2-6 and columns 8-12 of the Dilution MTP by a Hamilton robotic liquid handling station.
BCT test & neutralization & dilution: Bacterial stock (30 µl) was then added to columns 1 of the ‘Screening plate’ and mixed by a Hamilton robotic liquid handling station. After a contact time of 45 seconds, 30 µl of the mixtures in column 1 were transferred into the corresponding wells of column 1 of the ‘Dilution plate’. After neutralizing for 5 minutes in the D/E neutralizing solution, 30 µl of the neutralized mixtures were transferred from column 1 to column 2 of the Dilution MTP and mixed, followed by transferring 30 µl of the mixtures from column 2 into column 3. This process was repeated serially diluting the bacteria suspensions across the plate to column 6. Bacterial stock (30 µl) was then added to columns 7 of the ‘Screening plate’ and mixed by a Hamilton robotic liquid handling station. After a contact time of 45 seconds, 30 µl of the mixtures in column 7 were transferred into the corresponding wells of column 7 of the ‘Dilution plate’. After neutralizing for 5 minutes in the D/E neutralizing solution, 30 µl of the mixtures were transferred from column 7 to column 8 of the Dilution MTP and mixed, followed by transferring further 30 µl mixtures from column 8 into column 9. This process was repeated serially diluting the bacteria suspensions across the plate to column 12.
Plating: 30 µl volumes from each well in the Dilution MTP were transferred onto four Tryptone Soya Agar (TSA) plates. The TSA plates were allowed to stand for about two hours so that the 30 µl inocula spots could dry and the plates were then inverted and incubated overnight at 37° C. for 24 hours. After incubation, colonies were counted.
Calculating log reduction: Select the dilutions with colony counts, and calculate the viable cell counts (CFU/mL) of mixture in ‘Screening plate’, and log reduction against the control MilliQ sample was calculated.

[3] = 0.5% perfume ingredient, Base 1: SLES 1.875%, CAPB 0.625%, contact 45 s, read-out: Log reduction in Base 1 (Log CFU/mL)
[4] = 0.5% perfume ingredient, CAPB 0.75%, contact 45 s
[5] = 0.5% perfume ingredient, Base 2: SLES 2.25%, CAPB 0.75%, contact 45 s, read-out: Log reduction (Log CFU/mL) Base 2
[6] = model base 1, table by functional group, read-out: Log reduction in Base 1 (Log CFU/mL)

Row | Compound | EACN [1] | log reduction at 0.5 % [2, 3] | Log reduction (Log CFU/mL) Base 3 [2, 4] | Log reduction (Log CFU/mL) Base 4 [2, 4] | log reduction at 0.5 % [2, 5] | log reduction at 0.5 % [2, 6]
1 | O=COCCc1ccccc1 [2-phenylethyl formate] | -6.21 | 0.3 |  |  |  | 
2 | CC/C=C\CC/C=C/CO [(2E,6Z)-2,6-nonadien-1-ol] | -35.12 | 5.6 | 3.9 Log CFU/mL | >4.5 Log CFU/mL | 0.5 | > 5.5
3 | CC(C)=CCC/C(C)=C\C=O [(2Z)-3,7-dimethyl-2,6-octadienal OR (2E)-3,7-dimethyl-2,6-octadienal] | -5.09 |  |  |  |  | 
4 | CCOC(=O)Cc1ccccc1 [ethyl phenylacetate] | -7.26 |  |  |  |  | 
5 | CCCc1ccc2c(c1)OCC(=O)CO2 [7-propyl-2H,4H-1,5-benzodioxepin-3-one] | -40.99 | 0 |  |  |  | 
6 | CC(C=O)Cc1ccc2c(c1)OCO2 (racemic) [(+-)-3-(1,3-benzodioxol-5-yl)-2-methylpropanal] | -11.56 |  |  |  |  | 
7 | CC(C)(C)C1CCC(=O)CC1 [4-(2-methyl-2-propanyl)cyclohexanone] | -3.78 |  |  |  |  | 
8 | Cc1ccc2c(c1)CC(C)(CO)C2 (racemic) [(+-)-2,5-dimethyl-2-indanmethanol] | -33.01 |  |  |  |  | 
9 | CC/C=C\CC1=C(C)CCC1=O [3-methyl-2-[(2Z)-2-penten-1-yl]-2-cyclopenten-1-one] | -8.51 |  |  |  |  | 
10 | CC1=CCC(C(C)(C)O)CC1 (racemic) [(+-)-alpha-terpineol] | -16.69 | 1.6 |  |  |  | 
11 | CC(CO)c1ccccc1 (racemic) [(+-)-2-phenyl-1-propanol] | -29.67 | -0.3 |  |  |  | 
12 | CCCCCC1CCCC(=O)O1 (racemic) [(+-)-6-pentyltetrahydro-2H-pyran-2-one] | -13.27 |  |  |  |  | 
13 | CC(=O)OC(C)c1ccccc1 (racemic) [(+-)-1-phenylethyl acetate] | -0.99 | 0.6 ± 1 | 0.2 Log CFU/mL | Insoluble | 0 | 
14 | CC1=CC(C)C(CO)C(C)C1 (racemic) [(+-)-2,4,6-trimethyl-3-cyclohexene-1-methanol] | -25.02 |  |  |  |  | 
15 | CC(C)=CCC/C(C)=C\CO [(Z)-3,7-dimethyl-2,6-octadien-1-ol] | -28.26 | > 5.4 | 4.9 Log CFU/mL | 4.5 Log CFU/mL | 0.5 | > 5.5
16 | CC/C(=C\C[C@H]1CC=C(C)C1(C)C)CO [(-)-(2E)-2-ethyl-4-[(1R)-2,2,3-trimethyl-3-cyclopenten-1-yl]-2-buten-1-ol] | -23.86 | -0.2 | Insoluble | Insoluble | -1 | 
17 | CCCCCCCCCCC=O [undecanal] | 4.59 |  |  |  |  | 
18 | C/C=C/c1ccc(O)c(OC)c1 [2-methoxy-4-[(1E)-1-propen-1-yl]phenol] | -42.88 | 0 |  |  |  | 
